In patent US20220323406A1, “METHODS AND COMPOSITIONS FOR DIFFERENTIATING STEM CELLS” (Massachusetts Institute of Technology, priority 2019, published 2022):

Legend:
[1] = test system: ENR+CD organoids (ISC to Paneth cell differentiation); assay: Primary screen: basal (non-stimulated) lysozyme secretion LYZ.NS, 2.5-D 384-well ENR+CD organoid differentiation; assay type: cell-based, mouse
Excerpt: (§1) High-throughput screening.

[2] = test system: ENR+CD organoids (ISC to Paneth cell differentiation); assay: Primary screen: CCh-stimulated lysozyme secretion LYZ.S, 2.5-D 384-well ENR+CD organoid differentiation; assay type: cell-based, mouse; details: primary screen
Excerpt: as §1

[3] = test system: ENR+CD organoids; assay: Primary screen: ATP (CellTiter-Glo 3D, CTG) cell number/viability, 2.5-D 384-well ENR+CD organoids; details: primary screen; for Z.CTG: standard z score;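 as to all read-outs here: compounds given at plating and again on day 3 over a 6-day differentiation from ENR+CV stem-cell-enriched precursors, ATP measured on day 6, plate median as control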
[4] = primary screen, dose 0.08 uM, standard z score
[5] = primary screen, dose 0.40 uM, standard z score
[6] = primary screen, dose 2.00 uM, standard z score
[7] = primary screen, dose 10.00 uM, standard z score
[8] = primary screen; dose 0.08 uM; FC vs plate median
[9] = primary screen; dose 0.40 uM; FC vs plate median
[10] = primary screen; dose 2.00 uM; FC vs plate median
[11] = primary screen; dose 10.00 uM; FC vs plate median
[12] = dose 0.08 uM, FC vs plate median
[13] = dose 0.40 uM, FC vs plate median
[14] = dose 2.00 uM, FC vs plate median
[15] = dose 10.00 uM, FC vs plate median
[16] = dose 0.08 uM, FC relative to plate median
[17] = dose 0.40 uM, FC relative to plate median
[18] = dose 2.00 uM, FC relative to plate median
[19] = dose 10.00 uM, FC relative to plate median

COCCOc1ccc2c(c1)ncn2-c1ccc2cccc(N3CCC(N)CC3)c2n1 [CP-673451]
Dose.FC.LYZ.NS ([1]; primary screen, dose 0.08 uM): 0.031 log2 fold change
Dose.FC.LYZ.NS ([1]; primary screen, dose 0.40 uM): 0.066 log2 fold change
Dose.FC.LYZ.NS ([1]; primary screen, dose 2.00 uM): 0.102 log2 fold change
Dose.FC.LYZ.NS ([1]; primary screen, dose 10.00 uM): −0.058 log2 fold change
Z.LYZ.NS ([1]; primary screen, standard z score, dose 0.08 uM): 0.274
Z.LYZ.NS ([1]; primary screen, standard z score, dose 0.40 uM): 0.577
Z.LYZ.NS ([1]; primary screen, standard z score, dose 2.00 uM): 0.886
Z.LYZ.NS ([1]; primary screen, standard z score, dose 10.00 uM): −0.508
Dose.FC.LYZ.S ([2]; dose 0.08 uM): 0.096 log2 fold change
Dose.FC.LYZ.S ([2]; dose 0.40 uM): −0.046 log2 fold change
Dose.FC.LYZ.S ([2]; dose 2.00 uM): 0.080 log2 fold change
Dose.FC.LYZ.S ([2]; dose 10.00 uM): −0.147 log2 fold change
Dose.FC.CTG ([3]; dose 0.08 uM): 0.069 log2 fold change
Dose.FC.CTG ([3]; dose 0.40 uM): 0.186 log2 fold change
Dose.FC.CTG ([3]; dose 2.00 uM): 0.008 log2 fold change
Dose.FC.CTG ([3]; dose 10.00 uM): −0.258 log2 fold change

C=CCn1c(=O)c2cnc(Nc3ccc(N4CCN(C)CC4)cc3)nc2n1-c1cccc(C(C)(C)O)n1 [MK-1775]
Z.LYZ.NS [1, 4]: 0.334
Z.LYZ.NS [1, 5]: −1.331
Z.LYZ.NS [1, 6]: −1.869
Z.LYZ.NS [1, 7]: −1.574
Dose.FC.LYZ.NS [1, 8]: 0.038 log2 fold change
Dose.FC.LYZ.NS [1, 9]: −0.153 log2 fold change
Dose.FC.LYZ.NS [1, 10]: −0.215 log2 fold change
Dose.FC.LYZ.NS [1, 11]: −0.181 log2 fold change
Dose.FC.LYZ.S [2, 12]: 0.066 log2 fold change
Dose.FC.LYZ.S [2, 13]: −0.217 log2 fold change
Dose.FC.LYZ.S [2, 14]: −0.208 log2 fold change
Dose.FC.LYZ.S [2, 15]: −0.254 log2 fold change
Dose.FC.CTG [3, 12]: 0.165 log2 fold change
Dose.FC.CTG [3, 13]: −0.450 log2 fold change
Dose.FC.CTG [3, 14]: −0.804 log2 fold change
Dose.FC.CTG [3, 15]: −1.026 log2 fold change

CC(C)(C#N)c1cc(Cn2cncn2)cc(C(C)(C)C#N)c1 [Anastrozole]
Dose.FC.LYZ.NS ([1]; primary screen, dose 0.08 uM): 0.035 log2 fold change
Z.LYZ.NS (standard z score) ([1]; primary screen, dose 0.08 uM): 0.305
Dose.FC.LYZ.NS ([1]; primary screen, dose 0.40 uM): 0.106 log2 fold change
Z.LYZ.NS (standard z score) ([1]; primary screen, dose 0.40 uM): 0.924
Dose.FC.LYZ.NS ([1]; primary screen, dose 2.00 uM): −0.003 log2 fold change
Z.LYZ.NS (standard z score) ([1]; primary screen, dose 2.00 uM): −0.026
Dose.FC.LYZ.NS ([1]; primary screen, dose 10.00 uM): −0.067 log2 fold change
Z.LYZ.NS (standard z score) ([1]; primary screen, dose 10.00 uM): −0.580
Dose.FC.LYZ.S ([2]; dose 0.08 uM): 0.045 log2 fold change
Dose.FC.LYZ.S ([2]; dose 0.40 uM): 0.100 log2 fold change
Dose.FC.LYZ.S ([2]; dose 2.00 uM): −0.008 log2 fold change
Dose.FC.LYZ.S ([2]; dose 10.00 uM): −0.081 log2 fold change
Dose.FC.CTG ([3]; dose 0.08 uM): −0.117 log2 fold change
Dose.FC.CTG ([3]; dose 0.40 uM): 0.024 log2 fold change
Dose.FC.CTG ([3]; dose 2.00 uM): −0.058 log2 fold change
Dose.FC.CTG ([3]; dose 10.00 uM): −0.499 log2 fold change

Cl.Cl.NC1(c2ccc(-c3nc4ccn5c(=O)[nH]nc5c4cc3-c3ccccc3)cc2)CCC1 [MK-2206 2HCl]
Z.LYZ.NS [1, 4]: 0.205
Z.LYZ.NS [1, 5]: −0.550
Z.LYZ.NS [1, 6]: −1.587
Z.LYZ.NS [1, 7]: −2.058
Dose.FC.LYZ.NS [1, 8]: 0.024 log2 fold change
Dose.FC.LYZ.NS [1, 9]: −0.063 log2 fold change
Dose.FC.LYZ.NS [1, 10]: −0.182 log2 fold change
Dose.FC.LYZ.NS [1, 11]: −0.236 log2 fold change
Dose.FC.LYZ.S [2, 12]: 0.071 log2 fold change
Dose.FC.LYZ.S [2, 13]: 0.083 log2 fold change
Dose.FC.LYZ.S [2, 14]: −0.239 log2 fold change
Dose.FC.LYZ.S [2, 15]: −0.367 log2 fold change
Z.CTG ([3]; dose 0.08 uM): 0.169
Z.CTG ([3]; dose 0.40 uM): −0.055
Z.CTG ([3]; dose 2.00 uM): −0.425
Z.CTG ([3]; dose 10.00 uM): −1.290
Dose.FC.CTG [3, 12]: 0.071 log2 fold change
Dose.FC.CTG [3, 13]: −0.023 log2 fold change
Dose.FC.CTG [3, 14]: −0.178 log2 fold change
Dose.FC.CTG [3, 15]: −0.540 log2 fold change

COc1ccc(C(=O)Nc2sc3c(c2C(N)=O)CCCC3)cc1OC [TCS 359]
Dose.FC.LYZ.NS ([1]; primary screen, dose 0.08 uM, FC relative to plate median): 0.085 log2 fold change
Z.LYZ.NS [1, 4]: 0.742
Dose.FC.LYZ.NS ([1]; primary screen, dose 0.40 uM, FC relative to plate median): 0.058 log2 fold change
Z.LYZ.NS [1, 5]: 0.502
Dose.FC.LYZ.NS ([1]; primary screen, dose 2.00 uM, FC relative to plate median): 0.018 log2 fold change
Z.LYZ.NS [1, 6]: 0.156
Dose.FC.LYZ.NS ([1]; primary screen, dose 10.00 uM, FC relative to plate median): −0.008 log2 fold change
Z.LYZ.NS [1, 7]: −0.072
Dose.FC.LYZ.S [2, 16]: 0.098 log2 fold change
Dose.FC.LYZ.S [2, 17]: 0.069 log2 fold change
Dose.FC.LYZ.S [2, 18]: −0.006 log2 fold change
Dose.FC.LYZ.S [2, 19]: 0.026 log2 fold change
Dose.FC.CTG [3, 16]: 0.150 log2 fold change
Z.CTG ([3]; dose 0.08 uM): 0.358
Dose.FC.CTG [3, 17]: 0.250 log2 fold change
Z.CTG ([3]; dose 0.40 uM): 0.598
Dose.FC.CTG [3, 18]: 0.050 log2 fold change
Z.CTG ([3]; dose 2.00 uM): 0.119
Dose.FC.CTG [3, 19]: −0.089 log2 fold change
Z.CTG ([3]; dose 10.00 uM): −0.212
